“Also recorded” adds a separate entry of the source.
What was measured:
Tinzaparin [1] = assay: LMWH Tinzaparin neutralization in living rats (anti-Xa assay); assay type: in vivo, rat; settings: 25 U Tinzaparin, then about 1 mg polymer or protamine (3 mg/kg)
Experimental: The present example examines heparin binding polymer effectiveness in vivo. HBSPCM polymers were tested for their ability to neutralize UFH and LMWH in living rats. Rats were first injected with heparin or heparin derivative, and then injected with the JNK-1 polymers, protamine or saline control to neutralize the previously administered heparin or heparin derivative. Neutralization was measured by detecting the percentage of factor Xa using an anti-Xa assay as a measure of anticoagulant activity.
In addition, Enoxaparin alone and JNK-1 polymers+Enoxaparin were compared (FIG. 8C). An anti-Xa assay was used to measure heparin activity in rat blood. In this pilot study, rats were injected with 25 U of UFH, Tinzaparin or Enoxaparin (0 minutes). Blood was collected after UFH, Tinzaparin, or Enoxaparin infusion (5 minutes). Approximately 1 mg of JNK-1 polymers or protamine (dose was 3 mg/kg) was injected at 7 minutes and the blood was collected at 12 minutes after UFH/Tinzaparin/Enoxaparin infusion (5 minutes after JNK-1 infusion), and 17 minutes (10 minutes after JNK-1 polymer infusion). For subjects receiving Enoxaparin, blood was collected at additional time points (25 minutes and 30 minutes). Blood samples collected before the UFH, Enoxaparin or Tinzaparin infusion were used as a base control. […] Each data point shown reflects an average and standard deviation from five rats. […]

LMWH Tinzaparin [2] = assay: APTT assay, neutralization of LMWH Tinzaparin in citrate plasma; assay type: biochemical, human
Experimental: Citrate plasma was anti-coagulated with 2.0 U/ml LMWH (LMWH control) and was titrated with different concentrations of JNK-1 polymers (0.009 to 8.69 nanomoles/ml) (FIG. 4A) and protamine (0.2 to 222.2 nanomoles/ml) (FIG. 4B).
(§1) Citrate plasma was anticoagulated with 2.0 U/ml UFH, Enoxaparin and Tinzaparin and was treated with different concentrations of the HBSPCM polymers and protamine (0.001 to 0.25 mg/ml). The APTT was measured for each sample.
(§2) Citrate plasma was anticoagulated with UFH (2.0 IU/mL), Enoxaparin (2.0 IU/mL) and Tinzaparin (1.14 IU/mL) and was titrated with different concentrations of the HBSPCM polymers and protamine (0.001 to 0.25 mg/ml). The APTT was measured for each sample.
Ability of HBSPCM polymers JNK-9, JNK-10 and JNK-11 was studied for the range of concentration from 0.01 to 0.25 mg/mL prepared in 0.15 M saline. Citrated blood was spun at 3000 RPM for 10 min to obtain platelet poor plasma (PPP). The PPP was then heparinized by adding 45 μL of heparin (UFH, LMWH etc.) to 2200 μL of PPP final concentration of 2.0 IU/mL for UFH and Tinzaparin and 1.14 IU/mL for Enoxaparin. Normal control was prepared by adding 25 μL of 0.15 M saline to 250 μL of PPP. 25 μL of each antidote solution (polymer or protamine) was added to 225 μL of heparinized PPP. 250 μL of APTT reagent (actin FSL) was then added and samples were incubated for 3 min at 37° C. […]

[3] = tested on: unfractionated heparin (UFH); assay: APTT assay, neutralization of UFH in citrate plasma; assay type: biochemical, human
Experimental: In one example, a heparin binding synthetic polyvalent cationic macromolecule JNK-1 can neutralize UFH in human blood under in vitro conditions (FIGS. 4A and 4B). Citrate plasma was anti-coagulated with 1.0 U/ml UFH (UFH control) and was titrated with different concentrations of JNK-1 polymers (0.009 to 8.69 nanomoles/ml) and protamine (0.2 to 222.2 nanomoles/ml).
as §1, §2
Ability of HBSPCM polymers JNK-9, JNK-10 and JNK-11 was studied for the range of concentration from 0.01 to 0.25 mg/mL prepared in 0.15 M saline. Citrated blood was spun at 3000 RPM for 10 min to obtain platelet poor plasma (PPP). The PPP was then heparinized by adding 45 μL of heparin (UFH, LMWH etc.) to 2200 μL of PPP final concentration of 2.0 IU/mL for UFH and Tinzaparin and 1.14 IU/mL for Enoxaparin. Normal control was prepared by adding 25 μL of 0.15 M saline to 250 μL of PPP. 25 μL of each antidote solution (polymer or protamine) was added to 225 μL of heparinized PPP. 250 μL of APTT reagent (actin FSL) was then added and samples were incubated for 3 min at 37° C. 250 μL of normal control was combined with 250 μL of APTT reagent and also incubated for 3 min. 50 μL of 0.025M CaCl2 was added to 100 μL aliquots of normal control and sample (in triplicate). A heparinized control containing 225 μL of PPP and 25 μL of saline was also prepared and run similar to normal control.

Tinzaparin [4] = assay: Anti Xa neutralization of Tinzaparin in platelet poor plasma; assay type: biochemical, human; settings: One IU LMWH per ml in platelet poor plasma
Experimental: (§3) Both JNK-1 and JNK-2 result in greater neutralization of unfractionated heparin at two doses (50 and 100 μg/ml), Tinzaparin (LMWH) and Enoxaparin (LMWH).

LMWH Tinzaparin [5] = assay: Thromboelastography (TEG), neutralization of LMWH Tinzaparin in whole blood; assay type: cell-based; settings: human whole blood; for clot strength (maximum amplitude, MA) with Tinzaparin: antidote at higher concentration (0.25 mg/ml)
Experimental: (§4) This example examines thromboelastography in the presence of various heparin binders. Thromboelastography (TEG) provides an in vitro method for monitoring of the evolution of the viscoelastic properties and coagulation kinetics of blood as clotting proceeds. The principle components of the TEG are a cylindrical cup and a bob suspended in the cup from a weak torsion wire. The warmed cup oscillates over a 10 second period through an angle of 4° 45′. Blood is added and a torque is transmitted to the bob as the gel forms. The rate of clot formation, the strength of the clot, and the rate of clot lysis are reflected in the shape traced out by the maxima in the bob oscillation as a function of time (the trace of the TEG). The clot's physical properties, i.e. rate of clot formation, clot strength, and stability are dependent on the interaction of fibrinogen, platelets, and plasma proteins. TEG studies yield the cumulative effect of several components of coagulation (global homeostasis) as a function of time.
To carry out TEG experiments, citrate anti-coagulated whole blood with heparin or heparin derivatives added are incubated with buffered HBSPCM polymers (sodium citrate or saline) for 1 minute before recalcification at 37° C. Clot formation kinetics are monitored in a TEG machine (350 μl whole blood+35 μl polymer or control solution) at 37° C.
The coagulation time (FIG. 7A) and maximum clot strength, or maximum amplitude (MA) (FIG. 7B) are shown. Citrated whole blood was added to UFH or Tinzaparin (0.5 U/ml) and re-calcified at 37° C. in a TEG cup and monitored using a TEG machine. JNK-1 polymers or protamine at different concentrations were used as neutralizing agents.

blood coagulation = assay: Blood compatibility by thromboelastograph (TEG); assay type: cell-based; settings: polymer concentration 0.5 mg/ml
Experimental: as §4
To carry out TEG experiments, citrate anti-coagulated whole blood with heparin or heparin derivatives added are incubated with buffered HBSPCM polymers (sodium citrate or saline) for 1 minute before recalcification at 37° C. Clot formation kinetics are monitored in a TEG machine (350 μl whole blood+35 μl polymer or control solution) at 37° C. […]

UFH = assay: Anti Xa neutralization of UFH in platelet poor plasma; assay type: biochemical, human; settings: One IU UFH per ml in platelet poor plasma
Experimental: as §3

## protamine
Tinzaparin [1]
  neutralization of anticoagulant activity of Tinzaparin in rats (anti-Xa): could not completely neutralize the LMWH
LMWH Tinzaparin [2]; citrate plasma, Tinzaparin 2.0 U/ml or 1.14 IU/mL, 0.001 to 0.25 mg/ml
  LMWH Tinzaparin neutralization (APTT): neutralizes UFH and LMWH only in the narrow concentration range
LMWH Tinzaparin [2]; human citrate plasma anti-coagulated with LMWH Tinzaparin (2.0 U/ml), titrated with JNK-1 0.009 to 8.69 or protamine 0.2 to 222.2 nanomoles/ml
  LMWH Tinzaparin neutralization (APTT): not at all; also recorded: incapable of neutralizing LMWH
[3]; citrate plasma, UFH 2.0 U/ml, polymers and protamine 0.001 to 0.25 mg/ml
  UFH neutralization (APTT): neutralizes UFH and LMWH only in the narrow concentration range
[3]; heparinized citrate plasma, 0.001 to 0.25 mg/ml
  anticoagulant effect at higher concentration (APTT): possesses anticoagulant activity
[3]; heparinized human citrate plasma, high doses of antidote
  anticoagulant effect at high concentration (APTT): had an anticoagulant effect
[3]; human citrate plasma anti-coagulated with UFH (1.0 U/ml), titrated with JNK-1 0.009 to 8.69 or protamine 0.2 to 222.2 nanomoles/ml
  UFH neutralization (APTT): complete neutralization occurred at a higher dosage of protamine; also recorded: acted with less efficiency for UFH within a smaller dose window
Tinzaparin [4]
  Anti Xa Neutralization (%) of Tinzaparin at 100 μg/ml: 77 ± 1%
blood
  Blood compatibility at 1 mg/ml: poor [3]
LMWH Tinzaparin [5]; Tinzaparin 0.5 U/ml, re-calcified at 37° C
  LMWH Tinzaparin neutralization (TEG: coagulation time, clot strength): not effective at neutralizing UFH or LMWH Tinzaparin and Enoxaparin in terms of the time to clot formation
LMWH Tinzaparin [5]
  clot strength (maximum amplitude, MA) with Tinzaparin: did not form a stable clot
LMWH Tinzaparin [5]; listed as protamine
  clot strength (maximum amplitude, MA) with Tinzaparin: not at all at a high dose
Blood coagulation
  coagulation time (R) and kinetics parameter (K), TEG: different blood coagulation profile
UFH; 50 μg/ml
  Anti Xa Neutralization (%) of UFH at 50 μg/ml: 84%
UFH; 100 μg/ml
  Anti Xa Neutralization (%) of UFH at 100 μg/ml: 85 ± 0%

Source: US10111902B2, “Polymers for reversing heparin-based anticoagulation” (University of British Columbia, priority 2011, dated 2018)
